Assay results taken from patent US9738655B2, “Tetrahydroisoquinolines containing substituted azoles as factor XIa inhibitors” (BRISTOL-MYERS SQUIBB COMPANY, priority 2013, dated 2017).
Counter-ions that a name gives are not always drawn. Like-named read-outs stand apart in the source and are kept apart here.

Tests used:
[1] = molecular target: purified human Factor XIa (Homo sapiens (Human), UniProt P03951); assay: Factor XIa enzyme inhibition assay (chromogenic substrate S-2366); conditions: read-out: Factor XIa Ki
Sequence of purified human Factor XIa (P03951 388-625): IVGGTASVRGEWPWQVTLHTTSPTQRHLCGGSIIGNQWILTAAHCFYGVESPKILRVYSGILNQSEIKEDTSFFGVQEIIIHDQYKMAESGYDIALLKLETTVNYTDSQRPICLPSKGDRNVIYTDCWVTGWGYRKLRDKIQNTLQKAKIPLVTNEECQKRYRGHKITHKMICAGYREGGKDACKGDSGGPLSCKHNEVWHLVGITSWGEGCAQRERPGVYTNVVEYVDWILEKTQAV
Sequence of purified human Factor XIa (P03951 19-387 partner): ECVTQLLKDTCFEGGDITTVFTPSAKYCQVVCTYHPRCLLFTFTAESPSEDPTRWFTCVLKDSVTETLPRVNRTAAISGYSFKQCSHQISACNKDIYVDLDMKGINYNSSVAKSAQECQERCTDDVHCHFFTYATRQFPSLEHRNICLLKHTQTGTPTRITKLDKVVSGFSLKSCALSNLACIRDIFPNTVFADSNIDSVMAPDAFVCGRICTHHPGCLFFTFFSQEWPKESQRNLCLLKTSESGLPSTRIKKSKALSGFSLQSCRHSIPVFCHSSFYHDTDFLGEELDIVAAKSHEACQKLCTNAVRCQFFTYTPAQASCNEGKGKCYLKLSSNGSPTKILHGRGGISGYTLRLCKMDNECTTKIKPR

[2] = molecular target: purified human plasma kallikrein (Homo sapiens (Human), UniProt P03952); assay: Plasma kallikrein enzyme inhibition assay (chromogenic substrate S-2302); type: biochemical
Sequence of purified human plasma kallikrein (P03952 391-638): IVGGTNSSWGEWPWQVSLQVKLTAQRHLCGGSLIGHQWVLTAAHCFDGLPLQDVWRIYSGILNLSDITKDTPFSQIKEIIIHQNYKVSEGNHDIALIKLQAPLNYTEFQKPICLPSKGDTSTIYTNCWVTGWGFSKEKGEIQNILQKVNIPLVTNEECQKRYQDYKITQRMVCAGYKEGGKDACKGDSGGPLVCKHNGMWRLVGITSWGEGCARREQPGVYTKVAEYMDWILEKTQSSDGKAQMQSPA
Sequence of purified human plasma kallikrein (P03952 20-390 partner): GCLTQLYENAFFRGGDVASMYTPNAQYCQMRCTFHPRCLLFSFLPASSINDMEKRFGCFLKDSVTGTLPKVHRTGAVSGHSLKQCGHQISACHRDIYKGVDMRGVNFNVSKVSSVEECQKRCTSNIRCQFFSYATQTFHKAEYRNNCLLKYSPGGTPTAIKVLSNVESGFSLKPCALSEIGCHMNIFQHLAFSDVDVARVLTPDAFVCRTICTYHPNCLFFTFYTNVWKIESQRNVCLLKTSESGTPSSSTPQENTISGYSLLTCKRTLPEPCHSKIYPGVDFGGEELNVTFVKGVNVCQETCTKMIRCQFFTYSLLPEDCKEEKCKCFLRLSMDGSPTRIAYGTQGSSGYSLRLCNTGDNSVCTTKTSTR

[3] = measured at 25° C. (no asterisk)

Compound | Ki ([1]; measured at 25° C.) | Ki ([2]; measured at 37° C. (*)) | Ki [2, 3] | Ki [1]
O=C(O)c1ccc(NC(=O)C2c3ccccc3CCN2C(=O)c2cn(-c3cccc(Cl)c3F)nn2)cc1 (stereo not shown) [Example 1, 4-(2-(1-(3-Chloro-2-fluorophenyl)-1H-1,2,3-triazole-4-carbonyl)-1,2,3,4-tetrahydroisoquinoline-1-carboxamido)benzoic acid] | 13.5 nM | – | 20.8 nM | –
O=C(O)c1ccc(NC(=O)[C@@H]2c3ccccc3CCN2C(=O)c2cn(-c3cccc(Cl)c3F)nn2)cc1 [Example 3, (S)-4-(2-(1-(3-Chloro-2-fluorophenyl)-1H-1,2,3-triazole-4-carbonyl)-1,2,3,4-tetrahydroisoquinoline-1-carboxamido)benzoic acid] | 6.44 nM | – | 13.1 nM | –
CN(C)CCNC(=O)c1ccc(-c2cccc3c2CCN(C(=O)c2cn(-c4cccc(Cl)c4F)nn2)C3C(=O)Nc2ccc(C(=O)O)cc2)cc1 (stereo not shown) [Example 6, 4-(2-(1-(3-Chloro-2-fluorophenyl)-1H-1,2,3-triazole-4-carbonyl)-5-(4-((2-(dimethylamino)ethyl)carbamoyl)phenyl)-1,2,3,4-tetrahydroisoquinoline-1-carboxamido)benzoic acid] | < 5 nM | – | 2.4 nM | –
CN(C)CCNC(=O)c1ccc(-c2cccc3c2CCN(C(=O)c2cnn(-c4cccc(Cl)c4F)c2)C3C(=O)Nc2ccc(C(=O)O)cc2)cc1 (stereo not shown) [Example 8, 4-(2-(1-(3-Chloro-2-fluorophenyl)-1H-pyrazole-4-carbonyl)-5-(4-((2-(dimethylamino)ethyl)carbamoyl)phenyl)-1,2,3,4-tetrahydroisoquinoline-1-carboxamido)benzoic acid, TFA salt] | < 5 nM | – | 3.37 nM | –
CN(C)CCNC(=O)c1ccc(-c2cccc3c2CCN(C(=O)c2cn(-c4cccc(Cl)c4F)nn2)[C@@H]3C(=O)Nc2ccc(C(=O)O)cc2)cc1 [Example 10, (S)-4-(2-(1-(3-Chloro-2-fluorophenyl)-1H-1,2,3-triazole-4-carbonyl)-5-(4-((2-(dimethylamino)ethyl)carbamoyl)phenyl)-1,2,3,4-tetrahydroisoquinoline-1-carboxamido)benzoic acid, TFA salt] | < 5 nM | – | 1.08 nM | –
CN(C)CCNC(=O)c1ccc(-c2cccc3c2CCN(C(=O)c2cn(-c4cccc(Cl)c4F)nn2)[C@H]3C(=O)Nc2ccc(C(=O)O)cc2)cc1 [Example 11, (R)-4-(2-(1-(3-Chloro-2-fluorophenyl)-1H-1,2,3-triazole-4-carbonyl)-5-(4-((2-(dimethylamino)ethyl)carbamoyl)phenyl)-1,2,3,4-tetrahydroisoquinoline-1-carboxamido)benzoic acid TFA salt] | – | – | 1060 nM | 165 nM
O=C(O)c1ccc(NC(=O)[C@@H]2c3cccc(-c4cncnc4)c3CCN2C(=O)c2cn(-c3cccc(Cl)c3F)nn2)cc1 [Example 14, (S)-4-(2-(1-(3-Chloro-2-fluorophenyl)-1H-1,2,3-triazole-4-carbonyl)-5-(pyrimidin-5-yl)-1,2,3,4-tetrahydroisoquinoline-1-carboxamido)benzoic acid] | < 5 nM | – | 6.27 nM | –
N#Cc1ccc(-c2cccc3c2CCN(C(=O)c2cn(-c4cccc(Cl)c4F)nn2)[C@H]3C(=O)Nc2ccc(C(=O)O)cc2)cn1 [Example 15, (R)-4-(2-(1-(3-Chloro-2-fluorophenyl)-1H-1,2,3-triazole-4-carbonyl)-5-(6-cyanopyridin-3-yl)-1,2,3,4-tetrahydroisoquinoline-1-carboxamido)benzoic acid, TFA salt] | 9.12 nM | – | 219 nM | –
N#Cc1ccc(-c2cccc3c2CCN(C(=O)c2cn(-c4cccc(Cl)c4F)nn2)[C@@H]3C(=O)Nc2ccc(C(=O)O)cc2)cn1 [Example 16, (S)-4-(2-(1-(3-Chloro-2-fluorophenyl)-1H-1,2,3-triazole-4-carbonyl)-5-(6-cyanopyridin-3-yl)-1,2,3,4-tetrahydroisoquinoline-1-carboxamido)benzoic acid, TFA salt] | < 5 nM | – | 4.55 nM | –
COC(=O)c1ccc(NC(=O)[C@@H]2c3cccc(-c4cncnc4)c3CCN2C(=O)c2cn(-c3cccc(Cl)c3F)nn2)cc1 [Example 26, (S)-Methyl 4-(2-(1-(3-chloro-2-fluorophenyl)-1H-1,2,3-triazole-4-carbonyl)-5-(pyrimidin-5-yl)-1,2,3,4-tetrahydroisoquinoline-1-carboxamido)benzoate] | 7.07 nM | 62 nM | – | –
COC(=O)c1ccc(NC(=O)[C@@H]2c3cccc(-c4cncnc4)c3CCN2C(=O)[C@H]2CC(c3cccc(Cl)c3F)=NO2)cc1 [Example 28, Methyl 4-((S)-2-((R)-3-(3-chloro-2-fluorophenyl)-4,5-dihydroisoxazole-5-carbonyl)-5-(pyrimidin-5-yl)-1,2,3,4-tetrahydroisoquinoline-1-carboxamido)benzoate] | < 5 nM | 55.8 nM | – | –

More lines, main results first:

Ki ([1]; measured at 25° C.) | Ki ([2]; measured at 37° C. (*)) | Ki [2, 3] | Compound | Ki [1]
9.62 nM | 54.1 nM | – | O=C(Nc1ccc2ncccc2c1)[C@H]1c2cccc(-c3cncnc3)c2CCN1C(=O)c1cn(-c2cccc(Cl)c2F)nn1 (stereo in doubt) [Example 125, 2-(1-(3-Chloro-2-fluorophenyl)-1H-1,2,3-triazole-4-carbonyl)-5-(pyrimidin-5-yl)-N-(quinolin-6-yl)-1,2,3,4-tetrahydroisoquinoline-1-carboxamide, TFA salt] | –
< 5 nM | – | 29.9 nM | Cc1c(C(=O)N2CCc3c(-c4ccc(C(=O)NCCN(C)C)cc4)cccc3C2C(=O)Nc2ccc(C(=O)O)cc2)nnn1-c1cccc(Cl)c1F (stereo not shown) [Example 7, 4-(2-(1-(3-Chloro-2-fluorophenyl)-5-methyl-1H-1,2,3-triazole-4-carbonyl)-5-(4-((2-(dimethylamino)ethyl)carbamoyl)phenyl)-1,2,3,4-tetrahydroisoquinoline-1-carboxamido)benzoic acid, TFA salt] | –
< 5 nM | – | 9.88 nM | O=C(O)c1ccc(NC(=O)C2c3cccc(-c4cncnc4)c3CCN2C(=O)c2cn(-c3cccc(Cl)c3F)nn2)cc1 (stereo not shown) [Example 12, 4-(2-(1-(3-Chloro-2-fluorophenyl)-1H-1,2,3-triazole-4-carbonyl)-5-(pyrimidin-5-yl)-1,2,3,4-tetrahydroisoquinoline-1-carboxamido)benzoic acid] | –
11.9 nM | – | 427 nM | O=C(O)c1ccc(NC(=O)[C@H]2c3cccc(-c4cncnc4)c3CCN2C(=O)c2cn(-c3cccc(Cl)c3F)nn2)cc1 [Example 13, (R)-4-(2-(1-(3-Chloro-2-fluorophenyl)-1H-1,2,3-triazole-4-carbonyl)-5-(pyrimidin-5-yl)-1,2,3,4-tetrahydroisoquinoline-1-carboxamido)benzoic acid] | –
3550 nM | > 4340 nM | – | COC(=O)c1ccc(NC(=O)[C@H]2c3cccc(-c4cncnc4)c3CCN2C(=O)c2cn(-c3cccc(Cl)c3F)nn2)cc1 [Example 25, (R)-Methyl 4-(2-(1-(3-chloro-2-fluorophenyl)-1H-1,2,3-triazole-4-carbonyl)-5-(pyrimidin-5-yl)-1,2,3,4-tetrahydroisoquinoline-1-carboxamido)benzoate] | –
< 5 nM | 46.8 nM | – | CNC(=O)c1ccc(-c2cccc3c2CCN(C(=O)c2cn(-c4cccc(Cl)c4F)nn2)[C@@H]3C(=O)Nc2ccc(C(=O)OC)cc2)cn1 [Example 27, (S)-Methyl 4-(2-(1-(3-chloro-2-fluorophenyl)-1H-1,2,3-triazole-4-carbonyl)-5-(6-(methylcarbamoyl)pyridin-3-yl)-1,2,3,4-tetrahydroisoquinoline-1-carboxamido)benzoate, TFA salt] | –
